Target: T1, full length active recombinant SYK enzyme (Homo sapiens, UniProt P43405)
T1 construct: full length active recombinant SYK enzyme (Millipore, Calif.); purchased Millipore
Test: Inhibition of Syk tyrosine phosphorylation activity (LANCE TR-FRET kinase assay)
Type: biochemical
Experimental: Inhibition of Syk Tyrosine Phosphorylation Activity
Potency of candidate molecules for inhibiting Syk tyrosine phosphorylation activity is assessed by measuring the ability of a test compound to inhibit Syk-mediated tyrosine phosphorylation of a Syk-specific substrate.
SYK tyrosine phosphorylation activity is measured using the LANCE™ Technology developed by Perkin Elmer Life and Analytical Sciences (Boston, Mass.). LANCE™ refers to homogeneous time resolved fluorometry applications using techniques such as time-resolved fluorescence resonance energy transfer assay (TR-FRET) (see generally for procedures in Perkin Elmer Application Note—How to Optimize a Tyrosine Kinase Assay Using Time Resolved Fluorescence-Based LANCE Detection, wwww.perkinelmer.com/lifesciences). The assay principle involves detection of a phosphorylated substrate using energy transfer from a phosphospecific europium-labeled antibody to streptavidin-allophycocyanin as an acceptor.
To test the ability of candidate molecules to inhibit SYK tyrosine phosphorylation activity, molecules are reconstituted in 30% DMSO and serially diluted 1:3 with the final dilution containing DMSO in the absence of the candidate molecule. The final DMSO concentration in the assay is 3%. Kinase assays are performed as a two part reaction. […] The second reaction involves termination of the kinase reaction and the simultaneous addition of the detection reagents—europium-labeled anti-phosphotyrosine reagent (Eu-W1024-PY100, Perkin Elmer, Boston, Mass.) and Streptavidin-Allophycocyanin detection reagent (SA-APC, Prozyme, Calif.). The kinase reaction is performed in a black U-bottom 96-well microtitre plate. The final reaction volume is 50 μL and contains a final concentration of 1 nM active SYK enzyme, 550 nM SYK-substrate, and 100 μM ATP diluted in a buffer containing 50 mM Tris pH 7.5, 5 mM MgCl2, and 1 mM DTT. The reaction is allowed to proceed for 1 hour at room temperature. The quench buffer contains 100 mM Tris pH 7.5, 300 mM NaCl2, 20 mM EDTA, 0.02% Brij35, and 0.5% BSA. The detection reagents are added to the reaction mixture at the following dilutions-1:500 for Eu-W1024-PY100 and 1:250 for SA-APC. The kinase reaction is terminated by the addition of 50 μL quench buffer containing the detection reagents. The detection is allowed to proceed for 1 hr at room temperature. Detection of the phosphorylated substrate in the absence and presence of inhibitors is measured in the TR-FRET instrument, Analyst HT (Molecular Probes, Sunnyvale, Calif.) and the condition for measurements are set up using CriterionHost Release 2.0 (Molecular Probes, Sunnyvale, Calif.). The settings used are a follows: excitation 360 nm, emission 665-7.5 nm, beam splitter 350 nm 50/50, flash 100 pulses, delay 60 us, integration 400 us, z-height 2 mm. […] IC50s were derived by non-linear regression analysis. […]

| SMILES | IC50 [nM] |
| --- | --- |
| NC(=O)c1ccc(N[C@@H]2CCCC[C@@H]2N)nc1Nc1ccc(-n2cccn2)cc1 (relative stereo) [Example 140, 6-(cis-2-aminocyclohexylamino)-2-(4-(1H-pyrazol-1-yl)phenylamino)nicotinamide] | 10 to 100 |
| NC(=O)c1ccc(N[C@@H]2CCCC[C@@H]2N)nc1Nc1ccc2[nH]ncc2c1 (relative stereo) [Example 141, 6-(cis-2-aminocyclohexylamino)-2-(1H-indazol-5-ylamino)nicotinamide] | 1 to 10 |
| Cc1cccc(Nc2cc(N[C@@H]3CCCC[C@@H]3N)ncc2C(N)=O)c1 (relative stereo) [Example 142, 6-(cis-2-aminocyclohexylamino)-4-(3-toluidino)nicotinamide] | > 1000 |
| Cc1cccc(Nc2cc(N[C@@H]3CCCC[C@@H]3N)ccc2C(N)=O)c1 [Example 1, 4-((1R,2S)-2-aminocyclohexylamino)-2-(m-tolylamino)benzamide] | > 1000 |
| Cn1ccc2c(Nc3cc(N[C@@H]4CCCC[C@@H]4N)ccc3C(N)=O)cccc21 [Example 2, 4-((1R,2S)-2-aminocyclohexylamino)-2-(1-methyl-1H-indol-4-ylamino)benzamide] | 100 to 1000 |
| NC(=O)c1ccc(N[C@@H]2CCCC[C@@H]2N)cc1Nc1ccc(F)cc1 [Example 3, 4-((1R,2S)-2-aminocyclohexylamino)-2-(4-fluorophenylamino)benzamide] | > 1000 |
| Cc1cc(C)cc(Nc2cc(N[C@@H]3CCCC[C@@H]3N)ccc2C(N)=O)c1 [Example 4, 4-((1R,2S)-2-aminocyclohexylamino)-2-(3,5-dimethylphenylamino)benzamide] | 100 to 1000 |
| NC(=O)c1ccc(N[C@@H]2CCCC[C@@H]2N)cc1Nc1cccc(-n2nccn2)c1 [Example 5] | 100 to 1000 |
| Cc1cc(Nc2cc(N[C@@H]3CCCC[C@@H]3N)ccc2C(N)=O)sn1 [Example 6, 4-((1R,2S)-2-aminocyclohexylamino)-2-(3-methylisothiazol-5-ylamino)benzamide] | 10 to 100 |
| NC(=O)c1ccc(N[C@@H]2CCCC[C@@H]2N)cc1Nc1cc(-c2ccccc2)no1 [Example 7, 4-((1R,2S)-2-aminocyclohexylamino)-2-(3-phenylisoxazol-5-ylamino)benzamide] | 10 to 100 |
| Cn1cc(Nc2cc(N[C@@H]3CCCC[C@@H]3N)ccc2C(N)=O)cn1 [Example 8, 4-((1R,2S)-2-aminocyclohexylamino)-2-(1-methyl-1H-pyrazol-4-ylamino)benzamide] | > 1000 |
| Cc1cc(Nc2cc(N[C@H](CC(C)C)C(N)=O)ccc2C(N)=O)sn1 [Example 9, (R)-4-(1-amino-4-methyl-1-oxopentan-2-ylamino)-2-(3-methylisothiazol-5-ylamino)benzamide] | 10 to 100 |
| Cc1cc(Nc2cc(N[C@H](C)C(N)=O)ccc2C(N)=O)sn1 [Example 10, (R)-4-(1-amino-1-oxopropan-2-ylamino)-2-(3-methylisothiazol-5-ylamino)benzamide] | 100 to 1000 |
| Cc1cc(Nc2cc(N[C@@H](C(N)=O)C(C)C)ccc2C(N)=O)sn1 [Example 11, (R)-4-(1-amino-3-methyl-1-oxobutan-2-ylamino)-2-(3-methylisothiazol-5-ylamino)benzamide] | 100 to 1000 |
| Cc1cc(Nc2cc(N[C@H](CC(C)C)C(N)=O)ccc2C(N)=O)no1 [Example 12, (R)-4-(1-amino-4-methyl-1-oxopentan-2-ylamino)-2-(5-methylisoxazol-3-ylamino)benzamide] | 100 to 1000 |
| Cc1cc(Nc2cc(N[C@H](CC(C)C)C(N)=O)ccc2C(N)=O)on1 [Example 13, (R)-4-(1-amino-4-methyl-1-oxopentan-2-ylamino)-2-(3-methylisoxazol-5-ylamino)benzamide] | 100 to 1000 |
| Cc1cc(Nc2cc(N[C@H](Cc3ccccc3)C(N)=O)ccc2C(N)=O)sn1 [Example 14, (R)-4-(1-amino-1-oxo-3-phenylpropan-2-ylamino)-2-(3-methylisothiazol-5-ylamino)benzamide] | 10 to 100 |
| Cc1cc(Nc2cc(N[C@H](COCc3ccccc3)C(N)=O)ccc2C(N)=O)sn1 [Example 15, (R)-4-(1-amino-3-(benzyloxy)-1-oxopropan-2-ylamino)-2-(3-methylisothiazol-5-ylamino)benzamide] | 100 to 1000 |
| Cc1cc(Nc2cc(N[C@H](CO)C(N)=O)ccc2C(N)=O)sn1 [Example 16, (R)-4-(1-amino-3-hydroxy-1-oxopropan-2-ylamino)-2-(3-methylisothiazol-5-ylamino)benzamide] | 100 to 1000 |
| Cc1cc(Nc2cc(N[C@H](CC3CCCCC3)C(N)=O)ccc2C(N)=O)sn1 [Example 17, (R)-4-(1-amino-3-cyclohexyl-1-oxopropan-2-ylamino)-2-(3-methylisothiazol-5-ylamino)benzamide] | 10 to 100 |
| Cc1cc(Nc2cc(N[C@@H](C(N)=O)c3ccccc3)ccc2C(N)=O)sn1 [Example 18, (R)-4-(2-amino-2-oxo-1-phenylethylamino)-2-(3-methylisothiazol-5-ylamino)benzamide] | 100 to 1000 |
| Cc1cc(Nc2cc(N[C@H](CC(C)C)C(N)=O)cc(F)c2C(N)=O)sn1 [Example 19, (R)-4-(1-amino-4-methyl-1-oxopentan-2-ylamino)-2-fluoro-6-(3-methylisothiazol-5-ylamino)benzamide] | > 1000 |
| Cc1cc(Nc2cc(N[C@H](CC(C)C)C(N)=O)c(F)cc2C(N)=O)sn1 [Example 20, (R)-4-(1-amino-4-methyl-1-oxopentan-2-ylamino)-5-fluoro-2-(3-methylisothiazol-5-ylamino)benzamide] | 10 to 100 |
| Cc1cc(Nc2cc(N[C@@H]3CCCC[C@@H]3N)c(F)cc2C(N)=O)sn1 [Example 21, 4-((1R,2S)-2-aminocyclohexylamino)-5-fluoro-2-(3-methylisothiazol-5-ylamino)benzamide] | 10 to 100 |
| Cc1cc(Nc2cc(N[C@@H](C(N)=O)C3CCCCC3)ccc2C(N)=O)sn1 [Example 22, (R)-4-(2-amino-1-cyclohexyl-2-oxoethylamino)-2-(3-methylisothiazol-5-ylamino)benzamide] | 10 to 100 |
| Cc1cc(Nc2c(C(N)=O)ccc(N[C@H](CC(C)C)C(N)=O)c2F)sn1 [Example 23, (R)-4-(1-amino-4-methyl-1-oxopentan-2-ylamino)-3-fluoro-2-(3-methylisothiazol-5-ylamino)benzamide] | > 1000 |
| Cc1cc(Nc2cc(N[C@H](Cc3ccccc3)C(N)=O)c(F)cc2C(N)=O)sn1 [Example 24, (R)-4-(1-amino-1-oxo-3-phenylpropan-2-ylamino)-5-fluoro-2-(3-methylisothiazol-5-ylamino)benzamide] | 1 to 10 |
| Cc1cc(Nc2cc(N[C@H](CC3CC3)C(N)=O)c(F)cc2C(N)=O)sn1 [Example 25, (R)-4-(1-amino-3-cyclopropyl-1-oxopropan-2-ylamino)-5-fluoro-2-(3-methylisothiazol-5-ylamino)benzamide] | 10 to 100 |
| CC[C@@H](Nc1cc(Nc2cc(C)ns2)c(C(N)=O)cc1F)C(N)=O [Example 26, (R)-4-(1-amino-1-oxobutan-2-ylamino)-5-fluoro-2-(3-methylisothiazol-5-ylamino)benzamide] | 10 to 100 |
| Cc1cc(Nc2cc(N[C@H](Cc3ccc(F)cc3)C(N)=O)c(F)cc2C(N)=O)sn1 [Example 27, (R)-4-(1-amino-3-(4-fluorophenyl)-1-oxopropan-2-ylamino)-5-fluoro-2-(3-methylisothiazol-5-ylamino)benzamide] | 10 to 100 |
